Entries after “also recorded” stand apart in the source; their conditions may differ.
Experiments:
[1] = Stain-removing effect of saliva solutions containing chewing gum components, color difference of stained hydroxyapatite discs; conditions: for Stain-removing effect of the acidulant itself: color difference: 0.1% in saliva solution, pH 6, compared to the saliva alone (pH 7), FIG. 3A, n=5, p<0.05
Protocol: Each research volunteer was asked to masticate one tablet of salivary gum (Morita Corporation), and about 30 ml of the saliva was collected respectively. The collected saliva was all combined in one container (beaker) so that personal information could not be traced. The collected saliva was centrifuged at 2,500×g for 10 minutes, and the supernatant was used as a saliva sample for a solvent in a testing solution.
The amount of the saliva collected when masticating 2 tablets of gum for 5 minutes was 15 ml on average. The sugar alcohol or acidulant was dissolved under stirring in a weight ratio corresponding to 2 tablets of the sample chewing gum into 15 ml of the saliva sample processed with the procedure of 2. That is, to 15 ml of a saliva sample, 2.31 g (15.4%) of the sugar alcohol or 15 mg (0.1%) of the acidulant was added and dissolved. Sodium metaphosphate was dissolved under stirring in an amount needed for each testing. For pH adjustment, an aqueous solution of hydrochloric acid or sodium hydroxide was used.
3% green tea extract, 1% black tea extract, and 1% instant coffee were dissolved under stirring in mineral water at 100° C. to obtain a staining liquid (instant coffee; Ajinomoto General Foods, Inc., mineral water; Suntory Foods Limited).
Hydroxyapatite discs (10 mm×10 mm, APP-100, HOYA Corporation) the surfaces of which were uniformly polished with a P400 waterproof abrasive paper were used as human enamel models. The hydroxyapatite discs after polishing were subjected to color measurement by the method of 6. as mentioned below to obtain reference values for the discs. The hydroxyapatite discs were separately put in a 12-well plate (IWAKI&Co., Ltd.) and immersed in 2.5 ml of the saliva sample and allowed to stand still at 37° C. for 2 hours so that saliva pellicles were formed on the surface. The discs were washed with water, and immersed in 2.5 ml of the staining liquid each added in each well of a fresh 12-well plate, and moderately shook at 37° C. for 24 hours so that stains were formed. The hydroxyapatite discs after staining were subjected to color measurement by the method in 6. mentioned below to obtain measurement values after staining. Hydroxyapatite discs after staining subjected to color measurement were placed in a fresh 12-well plate, and 2.5 ml of the saliva sample, the saliva solution containing chewing gum components, or the chewing gum extract solution was dispensed in each well, then the discs were immersed for 5 minutes or 35 minutes. The immersed discs were washed with distilled water, and extra water was wiped off with paper to dry the discs, followed by color measurement.
A spectrophotometer (CM-700d, Konica Minolta, Inc.) was set upright so that the colorimetric direction was upward. Hydroxyapatite discs before the pellicle formation, after staining or after the solution treatment were allowed to stand still above the colorimetric light source, and color measurements were performed 3 times successively, and the average value was employed. Color measurements were performed on the L*axis (lightness), the a*axis (chroma: red-green axis), and the b*axis (chroma: yellow-blue axis) of the L*a*b*color space based on JIS Z 8722:2009, under the condition of SCI including reflected light. […] E*ab was calculated according to the following expressions. […]

[2] = aqueous system; cited from earlier work

O=C(O)CC(O)(CC(=O)O)C(=O)O [citric acid]
Stain-removing effect of the acidulant itself: color difference [1]: a decrease in the color difference was observed

O=C(O)CC(O)C(=O)O (centres unmarked) [malic acid]
Stain-removing effect of the acidulant itself: color difference [1]: a decrease in the color difference was observed

O=P(=O)O [metaphosphoric acid]
pKa [2]: as small as not measurable in an aqueous system

sodium metaphosphate
Stain-removing effect: color difference of stained hydroxyapatite discs ([1]; 0.066% or 0.2% in the saliva, compared to the saliva alone, FIG. 1, n=6, p<0.05): a significant difference was observed compared to the case where the discs were treated with the saliva alone; also recorded: a significant decrease in the color difference was observed | Influence of pH on stain removal: transition of the color difference ([1]; saliva with 0.1% sodium metaphosphate, pH 5 compared to pH 7, FIG. 3C, n=6, p<0.05): a significant difference in the transition of the color difference was observed
